# How the values were obtained:
# [1] = target: T1, α7 nAChR (rat α7/CHO cells) (Rattus norvegicus, UniProt Q05941); test: Evaluation of modulators of α7 nAChRs using the IonFlux HT automated patch clamp system (potentiation of EC20 ACh-evoked currents); assay type: cell-based; settings: percent potentiation of ACh (EC20, approx. 60 μM) response in α7/CHO cells; 6-point dose response 0.03-10 μM; whole cell patch clamp
# T1 construct: expressed in transfected cells; host or cells: CHO cells (α7/CHO)
# T1 sequence (Q05941 23-502): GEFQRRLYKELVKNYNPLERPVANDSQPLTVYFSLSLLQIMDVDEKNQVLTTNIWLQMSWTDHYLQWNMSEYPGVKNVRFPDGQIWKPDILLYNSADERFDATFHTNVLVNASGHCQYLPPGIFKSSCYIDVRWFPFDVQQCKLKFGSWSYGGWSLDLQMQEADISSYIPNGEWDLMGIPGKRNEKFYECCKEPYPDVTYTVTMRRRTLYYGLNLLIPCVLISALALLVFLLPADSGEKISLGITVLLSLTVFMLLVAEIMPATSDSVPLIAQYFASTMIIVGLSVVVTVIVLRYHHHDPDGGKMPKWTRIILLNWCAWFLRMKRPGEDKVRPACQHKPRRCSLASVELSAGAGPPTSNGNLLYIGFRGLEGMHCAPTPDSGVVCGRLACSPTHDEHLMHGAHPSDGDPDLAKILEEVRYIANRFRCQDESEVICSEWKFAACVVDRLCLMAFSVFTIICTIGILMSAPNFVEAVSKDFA
# Experimental: Evaluation of Modulators of α7 nAChRs Using the IonFlux^HT Automated Patch Clamp System
# Acetylcholine was freshly prepared for each plate run and used at an EC20 concentration (approximately 60 μM for rat α7/CHO) to induce α7 nAChR currents on the IonFlux^HT. To prepare the ACh solution for a single plate, 6 μl of the 100 mM ACh stock was diluted into 10 ml of 0.3% DMSO/external solution
# Test compounds were prepared for a 6-point dose response from 0.03-10 μM. Working stocks were prepared from serial dilutions of 10 mM DMSO stock solutions to give a final DMSO concentration of 0.3%. 80 μl of the final concentration of each compound was added to the appropriate wells in an IonFlux^HT assay plate.
# 2×T175 flasks of α7/CHO cells (˜60-70% confluent) were washed twice with PBS and trypsinized (2 ml) for 3.5 minutes at 37° C./5% CO2. Cells were collected in F-12K complete media, counted and the number required for the assay was calculated, for example, 2×10^6 cells in a final volume of 670 μl of external solution were required to load one zone (one quarter) of an IonFlux^HT assay plate. The correct number of cells was pelleted by centrifuge, the supernatant was discarded and the cell pellet was resuspend in external solution at the required concentration so that cells were added in a volume of 80 μl per well to the IonFlux^HT assay plate.
# Calculation of the Effect of Compounds on ACh Mediated Currents in α7 nAChRs:
# The effect of test compounds on EC20 ACh-evoked currents was calculated by the formula: […]
# The rinse protocol was the initial step in preparation of the IonFlux^HT plate. 80 μl of MilliQ water was added to every well (except Out wells) and the IonFlux^HT assay plate was run through the water rinse protocol on the machine. At the end of the run, the water was discarded from the wells. This action was repeated twice.
# Briefly, to prepare the plate for the assay aliquots of cells, compounds and internal and external solutions were added to wells of the prepared IonFlux^HT plate (80 μl/well) (solutions made to manufacturer's specifications). Automated whole cell patch-clamp recordings were made using the standard IonFlux^HT single application protocol. Vacuum was held at 6 psi/hg throughout the experiment and membrane potential was held at −80 mV for 35 sec and then at −60 mV during data acquisition. Two ACh (EC20) pulses were applied at the beginning of the assay, 90 seconds apart, to provide an ACh baseline response then cells were perfused with modulators for 89 sec before ACh (EC20) was applied for 1 s. The calculation of percent potentiation of the acetylcholine response for each well was performed by the data analysis software supplied with the IonFlux^HT.
# The following compounds were tested in accordance with the above-procedure for activity and the EC50 values determined are reported: […]
Compound,melting point [°C],EC50 [1] [nM]
"COc1ccc(Cl)cc1OC[C@@H]1[C@@H](c2ccc(S(N)(=O)=O)cc2)C12CCCC2 (racemic) [Exp. 2, ±trans 4-{2-[(5-chloro-2-methoxyphenoxy)methyl]spiro[2.4]hept-1-yl}benzenesulfonamide]",56 to 58,143
"Cc1ncc(OC[C@H]2[C@H](c3ccc(S(N)(=O)=O)cc3)C2(C)C)cn1 (single isomer, unassigned) [Exp. 56]",,> 10000
"CC1(C)[C@@H](COc2cncnc2)[C@@H]1c1ccc(S(N)(=O)=O)cc1 (single isomer, unassigned) [Exp. 57]",,> 10000

# Continued, values first:
melting point [°C],EC50 [1] [nM],Compound
158 to 160,105,"COc1ccc(Cl)cc1OC[C@@H]1[C@@H](c2ccc(S(N)(=O)=O)cc2)C1(C)C (racemic) [Exp. 1, ±trans 4-{3-[(5-chloro-2-methoxyphenoxy)methyl]-2,2-dimethylcyclopropyl}benzenesulfonamide]"
,> 10000,"N#Cc1cc(F)ccc1OC[C@@H]1C[C@@H]1c1ccc(S(N)(=O)=O)cc1 (single isomer, unassigned) [Exp. 58]"

# From patent publication US9994518B2, “Alpha-7 nicotinic acetylcholine receptor modulators and uses thereof” (MERCK SHARP & DOHME CORP., priority 2014, dated 2018)
